Source: ChEMBL document CHEMBL1155491, “Acylurea connected straight chain hydroxamates as novel histone deacetylase inhibitors: Synthesis, SAR, and in vivo antitumor activity” (Bioorg Med Chem Lett, 2010)
Converted amounts (≈) assume the structure as drawn. The source made the active and inactive calls. No cut-off for these calls is given here.

Experiments:
[1] = Half life in mouse liver microsome; assay type: ADME; settings: liver microsomes
Histone deacetylase 8 = biological target: T1, Histone deacetylase 8 (Homo sapiens, UniProt Q9BY41); assay: Inhibition of HDAC8
T1 sequence (Q9BY41 whole entry): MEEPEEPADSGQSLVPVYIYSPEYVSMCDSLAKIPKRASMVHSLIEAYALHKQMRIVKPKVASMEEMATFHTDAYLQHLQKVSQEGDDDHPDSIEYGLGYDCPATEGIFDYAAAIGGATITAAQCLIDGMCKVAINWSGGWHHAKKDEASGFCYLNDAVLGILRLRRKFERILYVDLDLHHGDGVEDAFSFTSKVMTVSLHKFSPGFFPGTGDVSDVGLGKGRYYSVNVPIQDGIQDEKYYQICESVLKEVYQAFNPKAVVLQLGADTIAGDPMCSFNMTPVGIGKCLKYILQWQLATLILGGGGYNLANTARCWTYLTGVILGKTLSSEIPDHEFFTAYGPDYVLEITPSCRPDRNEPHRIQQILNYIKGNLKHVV

Histone deacetylase 7 = Histone deacetylase 7 (Homo sapiens, UniProt Q8WUI4); assay: Inhibition of HDAC7
Histone deacetylase 7, sequence (Q8WUI4 whole entry, looked up): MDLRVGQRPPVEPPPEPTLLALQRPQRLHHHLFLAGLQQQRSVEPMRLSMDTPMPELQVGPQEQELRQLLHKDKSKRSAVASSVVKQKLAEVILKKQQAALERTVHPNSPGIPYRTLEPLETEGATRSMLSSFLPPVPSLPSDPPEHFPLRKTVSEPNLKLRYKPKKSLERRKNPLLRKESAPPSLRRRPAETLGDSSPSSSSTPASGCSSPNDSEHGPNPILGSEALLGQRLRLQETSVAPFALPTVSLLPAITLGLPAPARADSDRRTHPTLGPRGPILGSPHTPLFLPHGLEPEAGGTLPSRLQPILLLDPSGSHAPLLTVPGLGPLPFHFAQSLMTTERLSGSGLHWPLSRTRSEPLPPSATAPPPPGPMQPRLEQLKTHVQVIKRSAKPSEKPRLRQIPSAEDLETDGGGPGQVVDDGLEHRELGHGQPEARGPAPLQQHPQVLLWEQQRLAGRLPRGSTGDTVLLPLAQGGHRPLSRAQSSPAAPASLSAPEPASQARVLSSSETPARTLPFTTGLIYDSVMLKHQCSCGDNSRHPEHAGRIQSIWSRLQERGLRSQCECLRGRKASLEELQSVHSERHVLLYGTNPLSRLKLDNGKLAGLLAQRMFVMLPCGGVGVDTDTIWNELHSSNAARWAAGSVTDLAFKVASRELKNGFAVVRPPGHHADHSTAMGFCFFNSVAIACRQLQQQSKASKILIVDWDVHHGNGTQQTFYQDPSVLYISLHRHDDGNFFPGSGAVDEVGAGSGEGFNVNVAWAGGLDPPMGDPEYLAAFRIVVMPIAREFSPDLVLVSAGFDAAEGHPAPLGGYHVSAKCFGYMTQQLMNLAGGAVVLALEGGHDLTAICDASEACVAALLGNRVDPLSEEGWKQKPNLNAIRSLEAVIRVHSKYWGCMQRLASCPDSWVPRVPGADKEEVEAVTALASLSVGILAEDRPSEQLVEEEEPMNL

Histone deacetylase 1 [2] = biological target: T2, Histone deacetylase 1 (Homo sapiens, UniProt Q13547)
T2 sequence (Q13547 whole entry): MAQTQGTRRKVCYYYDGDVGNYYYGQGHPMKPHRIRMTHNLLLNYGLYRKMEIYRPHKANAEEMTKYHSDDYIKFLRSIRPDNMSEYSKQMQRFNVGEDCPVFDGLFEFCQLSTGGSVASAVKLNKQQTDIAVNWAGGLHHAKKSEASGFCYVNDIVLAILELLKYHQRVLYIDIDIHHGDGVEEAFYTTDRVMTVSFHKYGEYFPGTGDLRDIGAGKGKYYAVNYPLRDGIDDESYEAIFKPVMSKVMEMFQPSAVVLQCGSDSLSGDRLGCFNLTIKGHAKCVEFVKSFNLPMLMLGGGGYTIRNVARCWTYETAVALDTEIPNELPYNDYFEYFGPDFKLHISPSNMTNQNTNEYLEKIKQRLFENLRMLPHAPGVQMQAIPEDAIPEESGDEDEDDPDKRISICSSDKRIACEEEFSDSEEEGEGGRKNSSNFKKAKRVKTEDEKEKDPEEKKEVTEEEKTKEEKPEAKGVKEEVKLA

HCT-116 = assay: Antiproliferative activity against human HCT116 cells; assay type: functional, cell-based
Histone deacetylase 3 = Histone deacetylase 3 (Homo sapiens, UniProt O15379); assay: Inhibition of HDAC3
Histone deacetylase 3, sequence (O15379 whole entry): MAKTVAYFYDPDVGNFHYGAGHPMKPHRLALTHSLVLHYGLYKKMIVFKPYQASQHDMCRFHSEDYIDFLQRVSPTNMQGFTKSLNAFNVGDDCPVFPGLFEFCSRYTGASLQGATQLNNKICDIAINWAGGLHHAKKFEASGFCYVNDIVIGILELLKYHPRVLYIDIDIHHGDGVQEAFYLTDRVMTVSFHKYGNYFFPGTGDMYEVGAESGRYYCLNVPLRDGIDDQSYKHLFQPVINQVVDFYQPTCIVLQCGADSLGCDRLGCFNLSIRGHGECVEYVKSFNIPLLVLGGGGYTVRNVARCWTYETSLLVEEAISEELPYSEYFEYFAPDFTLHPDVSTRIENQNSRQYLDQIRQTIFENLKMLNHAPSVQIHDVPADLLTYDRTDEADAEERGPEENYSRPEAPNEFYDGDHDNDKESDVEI

[3] = biological target: T3, Polyamine deacetylase HDAC10 (Homo sapiens, UniProt Q969S8); assay: Inhibition of HDAC10
T3 sequence (Q969S8 whole entry): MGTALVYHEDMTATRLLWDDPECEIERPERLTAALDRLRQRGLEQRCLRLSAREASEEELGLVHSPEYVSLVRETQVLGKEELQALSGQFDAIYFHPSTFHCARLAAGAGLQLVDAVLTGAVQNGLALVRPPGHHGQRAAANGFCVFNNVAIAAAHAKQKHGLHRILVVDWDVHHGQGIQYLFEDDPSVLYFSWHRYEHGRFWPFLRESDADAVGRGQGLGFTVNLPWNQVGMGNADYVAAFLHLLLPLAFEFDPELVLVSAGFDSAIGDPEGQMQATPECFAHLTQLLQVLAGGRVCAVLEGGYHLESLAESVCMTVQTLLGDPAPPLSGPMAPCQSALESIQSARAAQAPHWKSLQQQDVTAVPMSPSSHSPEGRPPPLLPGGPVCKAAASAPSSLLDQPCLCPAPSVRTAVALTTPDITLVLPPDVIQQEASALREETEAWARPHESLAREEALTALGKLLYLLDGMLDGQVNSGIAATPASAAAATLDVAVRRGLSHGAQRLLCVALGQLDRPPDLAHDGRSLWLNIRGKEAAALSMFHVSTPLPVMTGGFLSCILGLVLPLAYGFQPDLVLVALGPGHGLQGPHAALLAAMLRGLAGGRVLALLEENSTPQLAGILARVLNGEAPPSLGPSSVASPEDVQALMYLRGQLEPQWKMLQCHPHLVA

[4] = Octanol-water distribution coefficient, log D of the compound; assay type: physicochemical
Histone deacetylase 2 = Histone deacetylase 2 (Homo sapiens, UniProt Q92769)
Histone deacetylase 2, sequence (Q92769 whole entry): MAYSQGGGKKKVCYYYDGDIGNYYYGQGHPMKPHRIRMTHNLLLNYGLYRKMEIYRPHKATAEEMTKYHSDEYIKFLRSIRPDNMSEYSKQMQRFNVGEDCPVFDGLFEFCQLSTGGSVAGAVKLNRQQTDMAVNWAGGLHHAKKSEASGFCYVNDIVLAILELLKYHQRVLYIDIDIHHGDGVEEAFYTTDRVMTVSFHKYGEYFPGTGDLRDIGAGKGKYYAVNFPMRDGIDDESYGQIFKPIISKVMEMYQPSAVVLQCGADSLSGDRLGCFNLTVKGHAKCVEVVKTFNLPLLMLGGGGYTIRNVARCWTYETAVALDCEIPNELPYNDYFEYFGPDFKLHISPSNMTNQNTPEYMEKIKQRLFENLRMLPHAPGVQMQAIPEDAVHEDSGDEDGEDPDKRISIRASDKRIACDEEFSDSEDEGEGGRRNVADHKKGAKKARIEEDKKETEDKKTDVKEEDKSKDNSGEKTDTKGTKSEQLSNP

Histone deacetylase 4 = Histone deacetylase 4 (Homo sapiens, UniProt P56524); assay: Inhibition of HDAC4
Histone deacetylase 4, sequence (P56524 whole entry): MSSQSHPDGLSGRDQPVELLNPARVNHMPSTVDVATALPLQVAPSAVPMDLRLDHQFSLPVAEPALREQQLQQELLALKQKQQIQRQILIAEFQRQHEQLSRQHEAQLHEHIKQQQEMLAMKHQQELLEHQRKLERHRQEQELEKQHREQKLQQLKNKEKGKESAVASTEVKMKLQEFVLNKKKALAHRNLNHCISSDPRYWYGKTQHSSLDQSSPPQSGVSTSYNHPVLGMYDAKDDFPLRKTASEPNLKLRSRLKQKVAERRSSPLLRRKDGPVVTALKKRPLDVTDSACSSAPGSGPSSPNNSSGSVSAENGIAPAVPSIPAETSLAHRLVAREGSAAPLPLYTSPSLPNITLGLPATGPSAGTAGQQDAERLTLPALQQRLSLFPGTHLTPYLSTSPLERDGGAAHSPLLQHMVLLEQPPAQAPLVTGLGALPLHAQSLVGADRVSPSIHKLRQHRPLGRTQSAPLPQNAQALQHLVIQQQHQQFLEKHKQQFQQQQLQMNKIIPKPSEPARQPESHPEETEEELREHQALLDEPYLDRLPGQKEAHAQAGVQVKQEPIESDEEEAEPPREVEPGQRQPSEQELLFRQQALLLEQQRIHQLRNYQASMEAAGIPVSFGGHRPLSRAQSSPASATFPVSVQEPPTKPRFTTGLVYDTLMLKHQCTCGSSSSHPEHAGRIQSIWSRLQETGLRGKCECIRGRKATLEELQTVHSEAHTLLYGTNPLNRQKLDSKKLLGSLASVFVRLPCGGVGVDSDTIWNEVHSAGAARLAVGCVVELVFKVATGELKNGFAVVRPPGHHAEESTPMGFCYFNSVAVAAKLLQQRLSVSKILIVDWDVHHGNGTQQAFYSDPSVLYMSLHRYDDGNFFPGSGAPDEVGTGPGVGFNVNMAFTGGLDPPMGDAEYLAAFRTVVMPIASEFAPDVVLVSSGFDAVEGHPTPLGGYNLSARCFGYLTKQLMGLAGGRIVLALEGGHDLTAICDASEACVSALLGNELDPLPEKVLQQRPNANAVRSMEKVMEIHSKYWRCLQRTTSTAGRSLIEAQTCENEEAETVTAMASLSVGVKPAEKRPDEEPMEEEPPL

[5] = biological target: T4, Protein deacetylase HDAC6 (Homo sapiens, UniProt Q9UBN7); assay: Inhibition of HDAC6
T4 sequence (Q9UBN7 whole entry): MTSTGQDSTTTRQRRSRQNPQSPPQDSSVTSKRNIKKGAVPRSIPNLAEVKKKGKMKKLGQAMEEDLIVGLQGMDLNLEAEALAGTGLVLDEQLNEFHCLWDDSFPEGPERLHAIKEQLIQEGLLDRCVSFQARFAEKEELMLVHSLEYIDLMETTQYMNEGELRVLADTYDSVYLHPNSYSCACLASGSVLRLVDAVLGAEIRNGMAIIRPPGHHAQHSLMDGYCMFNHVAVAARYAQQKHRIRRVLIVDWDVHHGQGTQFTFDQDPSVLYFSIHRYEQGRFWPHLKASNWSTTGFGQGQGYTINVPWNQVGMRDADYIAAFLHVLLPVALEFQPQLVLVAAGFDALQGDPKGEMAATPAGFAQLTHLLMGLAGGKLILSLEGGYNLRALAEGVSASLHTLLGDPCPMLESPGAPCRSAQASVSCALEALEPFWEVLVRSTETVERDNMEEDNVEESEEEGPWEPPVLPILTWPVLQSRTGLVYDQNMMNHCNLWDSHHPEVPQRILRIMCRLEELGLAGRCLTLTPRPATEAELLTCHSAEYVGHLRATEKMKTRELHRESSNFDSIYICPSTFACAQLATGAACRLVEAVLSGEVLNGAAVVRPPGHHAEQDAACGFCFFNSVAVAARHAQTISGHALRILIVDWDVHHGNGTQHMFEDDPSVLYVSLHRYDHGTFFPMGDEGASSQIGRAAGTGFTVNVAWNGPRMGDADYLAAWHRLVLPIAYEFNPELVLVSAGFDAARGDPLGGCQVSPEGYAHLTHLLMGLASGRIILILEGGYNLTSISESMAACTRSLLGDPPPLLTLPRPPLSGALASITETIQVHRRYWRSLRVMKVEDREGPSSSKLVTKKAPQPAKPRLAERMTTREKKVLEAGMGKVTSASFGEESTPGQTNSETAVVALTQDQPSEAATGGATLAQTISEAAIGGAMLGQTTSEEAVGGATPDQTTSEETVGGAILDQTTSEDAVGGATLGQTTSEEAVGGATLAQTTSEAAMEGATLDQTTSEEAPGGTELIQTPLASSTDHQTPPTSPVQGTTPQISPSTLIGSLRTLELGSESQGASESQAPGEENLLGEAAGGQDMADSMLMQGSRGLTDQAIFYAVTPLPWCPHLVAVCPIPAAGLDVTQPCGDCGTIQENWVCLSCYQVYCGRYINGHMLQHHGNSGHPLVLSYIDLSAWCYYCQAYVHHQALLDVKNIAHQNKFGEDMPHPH

Histone deacetylase 11 = biological target: T5, Histone deacetylase 11 (Homo sapiens, UniProt Q96DB2); assay: Inhibition of HDAC11
T5 sequence (Q96DB2 whole entry): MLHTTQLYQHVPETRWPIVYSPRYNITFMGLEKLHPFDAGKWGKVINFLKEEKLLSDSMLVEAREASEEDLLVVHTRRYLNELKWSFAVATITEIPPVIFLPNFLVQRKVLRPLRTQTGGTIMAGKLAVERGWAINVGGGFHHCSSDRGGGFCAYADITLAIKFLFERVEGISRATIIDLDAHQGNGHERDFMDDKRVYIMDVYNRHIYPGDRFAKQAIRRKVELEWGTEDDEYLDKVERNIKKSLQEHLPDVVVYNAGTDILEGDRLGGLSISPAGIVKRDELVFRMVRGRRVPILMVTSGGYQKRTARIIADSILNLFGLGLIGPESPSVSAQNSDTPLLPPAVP

[6] = Half life in human liver microsome; assay type: ADME; settings: liver microsomes
Histone deacetylase 9 = Histone deacetylase 9 (Homo sapiens, UniProt Q9UKV0); assay: Inhibition of HDAC9
Histone deacetylase 9, sequence (Q9UKV0 whole entry): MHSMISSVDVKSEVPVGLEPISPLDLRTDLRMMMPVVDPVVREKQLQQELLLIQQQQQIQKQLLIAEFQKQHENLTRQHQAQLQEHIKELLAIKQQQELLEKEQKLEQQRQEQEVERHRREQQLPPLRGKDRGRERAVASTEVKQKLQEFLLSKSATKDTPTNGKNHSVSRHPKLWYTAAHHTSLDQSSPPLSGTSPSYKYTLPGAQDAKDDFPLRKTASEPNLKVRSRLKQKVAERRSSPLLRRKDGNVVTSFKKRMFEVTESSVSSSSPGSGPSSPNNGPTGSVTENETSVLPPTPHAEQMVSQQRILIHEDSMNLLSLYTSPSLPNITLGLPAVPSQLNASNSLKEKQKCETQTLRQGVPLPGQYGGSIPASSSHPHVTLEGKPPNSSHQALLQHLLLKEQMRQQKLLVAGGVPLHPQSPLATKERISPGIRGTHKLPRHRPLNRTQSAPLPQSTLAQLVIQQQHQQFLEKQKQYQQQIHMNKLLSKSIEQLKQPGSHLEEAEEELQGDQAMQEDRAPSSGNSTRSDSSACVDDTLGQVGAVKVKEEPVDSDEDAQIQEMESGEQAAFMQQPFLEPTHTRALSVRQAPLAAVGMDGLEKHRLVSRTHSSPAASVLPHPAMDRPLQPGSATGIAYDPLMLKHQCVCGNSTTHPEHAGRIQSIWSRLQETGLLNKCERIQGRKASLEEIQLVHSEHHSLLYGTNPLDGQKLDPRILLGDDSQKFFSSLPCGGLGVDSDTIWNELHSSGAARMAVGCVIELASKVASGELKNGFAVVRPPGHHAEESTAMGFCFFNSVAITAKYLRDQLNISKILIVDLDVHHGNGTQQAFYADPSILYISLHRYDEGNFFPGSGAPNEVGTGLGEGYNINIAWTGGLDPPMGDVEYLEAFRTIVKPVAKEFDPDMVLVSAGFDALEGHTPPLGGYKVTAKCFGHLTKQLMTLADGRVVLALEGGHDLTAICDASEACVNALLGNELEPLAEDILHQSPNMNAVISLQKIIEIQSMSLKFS

Histone deacetylase 1 [7] = biological target: T2, Histone deacetylase 1; remark: listed apart in the source
PC-3 = assay: Antiproliferative activity against human PC3 cells; assay type: functional, cell-based
[8] = Thermodynamic solubility at pH 7.4; assay type: physicochemical; settings: buffer, read-out: Therm_solubility
[9] = Half life in rat liver microsome; assay type: ADME; settings: liver microsomes
Histone deacetylase 5 = Histone deacetylase 5 (Homo sapiens, UniProt Q9UQL6); assay: Inhibition of HDAC5
A2780 = assay: Antiproliferative activity against human A2780 cells; assay type: functional, cell-based
[10] = Solubility at pH 7; assay type: physicochemical; settings: buffer
Histone deacetylase 1 [11] = biological target: T2, Histone deacetylase 1; assay: Inhibition of HDAC1 in human COLO205 cells assessed as induction of histone H3 acetylation at 10 uM by Western-immuno blotting; assay type: cell-based; settings: COLO 205

half-life [1]: 31 min
Ki (Histone deacetylase 8): 315 nM
Ki (Histone deacetylase 7): 31 nM
IC50 (Histone deacetylase 1 [2]): 870 nM
IC50 (HCT-116): 600 nM
Ki (Histone deacetylase 3): 8 nM
Ki [3]: 9 nM
logD [4]: 1.72
Ki (Histone deacetylase 2): 12 nM
Ki (Histone deacetylase 4): 6 nM
Ki [5]: 8 nM
Ki (Histone deacetylase 11): 9 nM
half-life [6]: > 60 min
Ki (Histone deacetylase 9): 6 nM
IC50 (Histone deacetylase 1 [7]): 13 nM
Ki (Histone deacetylase 1 [7]): 8 nM
IC50 (PC-3): 660 nM
solubility thermodynamic [8]: 15 µg/mL (≈ 40.3 µM)
half-life [9]: 53 min
Ki (Histone deacetylase 5): 13 nM
IC50 (A2780): 450 nM
solubility [10]: 51 µM (≈ 19 µg/mL)
Activity (Histone deacetylase 1 [11]): Active
SMILES: O=C(CCCCCNC(=O)NC(=O)c1ccc(Br)cc1)NO
